According to EP1203770A1 (priority 1992, dated 1994):
pIC50, pKi: −log10 of the molar value. Where two headings read alike, the source gives them in different places.

Target: T1, HIV-1 protease (Human immunodeficiency virus type 1 group M subtype B, UniProt P04585)
T1 construct: The protease (or proteinase), consisting of only 99 amino acids, is among the smallest enzymes known
Experiment: In vitro HIV protease inhibitory assay (HIV Protease FITC Assay)
Assay type: biochemical
Conditions: for inhibition at 0.123 µM / inhibition at 0.37 µM / inhibition at 1.1 µM / inhibition at 3.3 µM / inhibition at 10 µM / inhibition at 30 µM / inhibition at 1 µM / inhibition at 100 µM / inhibition at 0.41 µM / inhibition at 1.23 µM / inhibition at 3.7 µM / inhibition at 11 µM / inhibition at 33 µM: read-out: HIV-1 Protease % Inhib; for inhibition at 0.41 µM: HIV-1 Dose 0.410 uM; for inhibition at 1.23 µM: HIV-1 Dose 1.230 uM; for inhibition at 3.7 µM: HIV-1 Dose 3.700 uM; for inhibition at 11 µM: HIV-1 Dose 11.000 uM; for inhibition at 33 µM: HIV-1 Dose 33.000 uM; for pKi: read-out: HIV-1 FITC Ki
Description: The HIV protease screening assay is based on a fluorescently labeled substrate which can be resolved from nonlabeled cleavage product using avidin-polystyrene particles, 0.7-0.9 µm. The substrate is biotinylated at the amino terminal arginine and fluorescently labeled with fluorescein isothiocynate (FITC) at the carboxyl terminal lysine. […] Substrate (20 µl of 0.2 µM), sample (10 µl of desired concentraion), and enzyme (10 µl of 0.1 µM) are added to a 96 well pandex plate. The assay is run in 0.1 M sodium acetate buffer at pH 5.5 in the presence of 1.0 M sodium chloride and 0.05% NP-40 and incubated in the dark for one hour at room temperature. Avidin coated polystyrene beads {40 µl of 0.1% (w/v)} are added and the incubation is continued in the dark for an additional half hour. The labeled cleavage product is separated from the unreacted substrate via filtration and is read on the Idexx Screen Machine. The data are analyzed by appropriate computer algorithms to ascertain percent inhibition values.

Compound | inhibition at 0.123 µM (HIV-1 Dose 0.123 uM) [%] | inhibition at 0.37 µM (HIV-1 Dose 0.370 uM) [%] | inhibition at 1.1 µM (HIV-1 Dose 1.100 uM) [%] | inhibition at 3.3 µM (HIV-1 Dose 3.300 uM) [%] | inhibition at 10 µM (HIV-1 Dose 10.000 uM) [%] | inhibition at 30 µM (HIV-1 Dose 30.000 uM) [%] | inhibition at 100 µM (HIV-1 Dose 100.000 uM) [%] | pKi | also measured
CCC(CCN1CCOCC1)c1cc(O)c(C(c2ccccc2)C2CC2)c(=O)o1 (centres unmarked) [Example 131, 3-(Cyclopropylphenylmethyl)-6-[1-ethyl-3-(4-morpholinyl)propyl]-4-hydroxy-2H-pyran-2-one] | < 10 | < 10 | < 10 | < 10 | 13.2 | 45.9 | – | – | –
CCC(Cc1ccccc1Cl)c1cc(O)c(C(c2ccccc2)C2CC2)c(=O)o1 (stereo not drawn) [Example 157, 3-(α-cyclopropylbenzyl)-4-hydroxy-6-(α-ethyl-o-chlorophenethyl)-2H-pyran-2-one] | < 10 | 17.6 | 42.2 | 69 | 83.5 | 84.9 | – | – | –
CCC(CC)c1cc(O)c(C(CC)c2ccccc2)c(=O)o1 (centres unmarked) [Example 14, 6-(1'-Ethyl-propyl)-4-hydroxy-3-(1'-phenyl-propyl)-2-pyrone] | – | – | – | – | 90.2 | – | 105 | – | pIC50: 5.66; inhibition at 1 µM (HIV-1 Dose 1.000 uM): 40.2%
CCCC1(CCc2ccccc2)CC(O)=C(/C(=C/c2ccccc2)c2ccccc2)C(=O)O1 (centres unmarked) [Example 173, 3-(1,2-Diphenylethenyl)-5,6-dihydro-4-hydroxy-6-(2-phenylethyl)-6-propyl-, (E)-2H-pyran-2-one] | < 10 | < 10 | – | < 10 | 39.2 | 58.8 | – | – | –
COCCOCCOCCCc1cc(O)c(C(c2ccccc2)C2CC2)c(=O)o1 (centres unmarked) [Example 108] | – | – | – | – | – | – | 118 | 6.22 | inhibition at 0.41 µM: < 10%; inhibition at 1.23 µM: 20.4%; inhibition at 3.7 µM: 46.9%; inhibition at 11 µM: 76.7%; inhibition at 33 µM: 84.8%
CC(C)(C)OC(=O)CCc1cc(O)c(C(c2ccccc2)C2CC2)c(=O)o1 (centres unmarked) [Example 42, 3-(5-(Cyclopropyl-phenyl-methyl)-4-hydroxy-6-oxo-6H-pyran-2-yl)-propionic acid tert-butyl ester] | – | – | – | – | 74.7 | – | 105 | 6.28 | inhibition at 1 µM (HIV-1 Dose 1.000 uM): 19.7%
3-(.alpha.-ethylbenzyl)-4-hydroxy-6-(3-butenyl)-2H-Pyran-2-one [Example 10] | – | – | – | – | – | – | – | – | pIC50: 5.54; HIV-1 Protease % Inhib (HIV-1 Dose 1.000 uM): 14.18%; HIV-1 Protease % Inhib (HIV-1 Dose 10.000 uM): 82.75%; HIV-1 Protease % Inhib (HIV-1 Dose 100.000 uM): 104.37%
O=c1oc(CCc2ccccc2)cc(O)c1C(C1CC1)C1CC1 [Example 82, 3-Dicyclopropylmethyl-4-hydroxy-6-phenethyl-pyran-2-one] | – | – | – | – | 90.9 | – | 106 | – | inhibition at 1 µM (HIV-1 Dose 1.000 uM): 19.8%
CCC(CC1OCCO1)c1cc(O)c(C(c2ccccc2)C2CC2)c(=O)o1 (centres unmarked) [Example 60, 3-(Cyclopropyl-phenyl-methyl)-6-(1-(1,3)dioxolan-2-ylmethyl-propyl)-4-hydroxy-pyran-2-one] | – | – | – | – | – | – | 123 | 7.34 | inhibition at 0.41 µM: 63.2%; inhibition at 1.23 µM: 86.7%; inhibition at 3.7 µM: 106%; inhibition at 11 µM: 113%; inhibition at 33 µM: 111%
CCC(Cc1ccccc1)c1cc(O)c(C(c2cccc(NC(=O)[C@H](Cc3c[nH]cn3)NC(=O)OC(C)(C)C)c2)C2CC2)c(=O)o1 (stereo partly drawn) [Example 226, 3-(α-Cyclopropyl-meta-(N-α-tert-butyloxycarbonyl-L-histidylamino)benzyl)-6-(α-ethylphenethyl)-4-hydroxy-2H-pyran-2-one] | – | – | – | – | – | – | – | 8.40 | inhibition at 0.123 µM: 73.4%; inhibition at 0.37 µM: 93.9%; inhibition at 1.1 µM: 106%; inhibition at 3.3 µM: 104%; inhibition at 10 µM: 101%; inhibition at 30 µM: 98.3%
C=CC(C1=C(O)CC2(CCCC2)OC1=O)c1ccccc1 (centres unmarked) [Example 128, 4-Hydroxy-3-(1-phenylallyl)-1-oxa-spiro[5.4]-dec-3-en-2-one] | < 10 | < 10 | 18.5 | 46.8 | 79.8 | 95.7 | – | – | –
CC(C)C(Cc1ccccc1)c1cc(O)c(C(c2ccccc2)C2CC2)c(=O)o1 (centres unmarked) [Example 133, 3-(Cyclopropylphenylmethyl)4-hydroxy-6-[2-methyl-1-(phenylmethyl)propyl]-2H-pyran-2-one] | 20.6 | 49.6 | 74.3 | 95.9 | 110 | 102 | – | 7.40 | –
CCC(c1ccccc1)c1c(O)c(Br)c(C(CC2CC2)CC2CC2)oc1=O (centres unmarked) [Example 77] | – | – | – | – | – | – | 110 | 7.12 | inhibition at 0.41 µM: 69.4%; inhibition at 1.23 µM: 86.9%; inhibition at 3.7 µM: 101%; inhibition at 11 µM: 109%; inhibition at 33 µM: 108%
CC(C)CC1(CCc2ccccc2)CC(O)=C(C(c2ccccc2)c2ccccc2)C(=O)O1 (centres unmarked) [Example 209, 2H-Pyran-2-one, 3-diphenylmethyl-5,6-dihydro-4-hydroxy-6-(2-methylpropyl)-6-(2-phenylethyl)-] | < 10 | 12 | 32.2 | 59.9 | 76.7 | 77.8 | – | 7.04 | –
CCC(Cc1cccc(OC)c1)c1cc(O)c(C(c2ccccc2)C2CC2)c(=O)o1 (stereo not drawn) [Example 164, 3-(α-cyclopropylbenzyl)-4-hydroxy-6-(α-ethyl-m-methoxyphenethyl)-2H-pyran-2-one] | < 10 | 16.5 | 50 | 68.8 | 84.8 | 88.2 | – | 6.73 | –
C=CC(C1=C(O)CC2(CCCCC2Cc2ccccc2)OC1=O)c1ccccc1 (centres unmarked) [Example 129, 7-Benzyl-4-hydroxy-3-(1-phenylallyl)-1-oxa-spire[5.5]undec-3-en-2-one] | – | – | – | – | – | – | – | – | inhibition at 0.123 µM: < 10%; inhibition at 0.37 µM: < 10%; inhibition at 1.1 µM: 43.5%; inhibition at 3.3 µM: 67.1%; inhibition at 10 µM: 80.7%; inhibition at 30 µM: 83.4%
CCC(Cc1ccco1)c1cc(O)c(C(c2ccccc2)C2CC2)c(=O)o1 (centres unmarked) [Example 59, 3-(Cyclopropyl-phenyl-methyl)-6-(1-furan-2-ylmethyl-propyl)4-hydroxy-pyran-2-one] | – | – | – | – | – | – | 105 | 7.24 | inhibition at 0.41 µM: 64.2%; inhibition at 1.23 µM: 81.2%; inhibition at 3.7 µM: 104%; inhibition at 11 µM: 102%; inhibition at 33 µM: 101%
O=c1oc(CCc2ccc(F)cc2)cc(O)c1C(c1ccccc1)C1CC1 (stereo not drawn) [Example 165, 3-(α-cyclopropylbenzyl)-4-hydroxy-6-(p-fluorophenethyl)-2H-pyran-2-one] | < 10 | 10.5 | 32.9 | 60 | 80.7 | 94.1 | – | – | –
CCC(c1ccccc1)c1c(O)cc(CCC2CC2)oc1=O (centres unmarked) [Example 96, 6-(2-Cyclopropyl-ethyl)-4-hydroxy-3-(1-phenyl-propyl)-pyran-2-one] | – | – | – | – | 77 | – | 90.5 | 5.85 | inhibition at 1 µM (HIV-1 Dose 1.000 uM): 27.9%
